Assay [1] deals with recombinant human Mcl-1 (residues 171-327) / Bim interaction (Homo sapiens (Human), UniProt Q07820). Briefly: biochemical. The format is binding. The settings on record: read-out: Mcl-1 HTRF IC50.
For assay [2], the system named is human multiple myeloma cell line, OPM-2. Briefly: Cell viability assay (OPM-2 10 FBS), CellTiter-Glo. The format is cell-based. The gist of the method: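 3000 cells/well, RPMI 1640 + 10% FBS; serial compound dilutions, 16 h, 37 °C/5% CO2.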
[3] abbreviates: 0.1 nM Mcl-1(171-327), 0.05 nM biotin-Bim (51-76).
Where [4] appears, read: read-out: OPM-2 10% FBS IC50 IP, OPM-2 cells, 10% FBS, 16 h incubation.
Where [5] appears, read: TR-FRET, Mcl-1(171-327) / biotin-Bim (51-76).
Where [6] appears, read: Homo sapiens, OPM-2, 16 h, read-out: OPM-2 10% FBS IC50 IP, OPM-2 cells, 10% FBS, 16 h, CellTiter-Glo.
[7] abbreviates: Homo sapiens, OPM-2, 16 h, read-out: OPM-2 10% FBS IC50 IP, OPM-2 cells, 10% FBS, 16 h incubation.

In patent US10821115B2, “Compounds that inhibit Mcl-1 protein” (priority 2017, dated 2020) one finds IC50 data, which are given here for seven molecules.

Molecules are shown by their SMILES. pIC50: −log10 of the molar value. Like-named read-outs stand apart in the source and are kept apart here.

Chain of recombinant human Mcl-1 (residues 171-327) / Bim interaction (Q07820 171-327): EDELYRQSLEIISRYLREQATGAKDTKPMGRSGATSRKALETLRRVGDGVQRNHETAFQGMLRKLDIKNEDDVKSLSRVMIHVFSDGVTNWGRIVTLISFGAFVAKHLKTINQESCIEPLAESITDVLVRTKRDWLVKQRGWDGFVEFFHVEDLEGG

In the case of `CO[C@@]1(CN2CCN3CCN(S(C)(=O)=O)C[C@@H]3C2)/C=C/C[C@H](C)[C@@H](C)S(=O)(=O)NC(=O)c2ccc3c(c2)N(C[C@@H]2CC[C@H]21)C[C@@]1(CCCc2cc(Cl)ccc21)CO3` (single isomer, unassigned) [Example 244], the pIC50 in assay [1] (setting [3]) was 8.78; in assay [2] (setting [4]), 6.20.

For `CO[C@]1(CCN(C)C)CCC[C@H](C)[C@@H](C)S(=O)(=O)NC(=O)c2ccc3c(c2)N(C[C@@H]2CC[C@H]21)C[C@@]1(CCCc2cc(Cl)ccc21)CO3` [Example 100472, (1S,3′R,6′R,7′S,11′S,12′R)-6-chloro-7′-(2-(dimethylamino)ethyl)-7′-methoxy-11′,12′-dimethyl-3,4-dihydro-2H,15′H-spiro[naphthalene-1,22′-[20]oxa[13]thia[1,14]diazatetracyclo [14.7.2.0~3,6~.0~19,24~]pentacosa[16,18,24]trien]-15′-one 13′,13′-dioxide], the values for the negative logarithm of the IC50 (pIC50) in assay [1] (setting [5]) and in assay [2] (setting [6]) were 9.19 and 6.45, respectively.

For the molecule `CO[C@@]1(CCO)/C=C/C[C@H](C)[C@@H](C)S(=O)(=O)NC(=O)c2ccc3c(c2)N(C[C@@H]2CC[C@H]21)C[C@@]1(CCCc2cc(Cl)ccc21)CO3` [Example 100218, (1S,3′R,6′R,7′S,8′E,11′S,12′R)-6-chloro-7′-(2-hydroxyethyl)-7′-methoxy-11′,12′-dimethyl-3,4-dihydro-2H,15′H-spiro[naphthalene-1,22′-[20]oxa[13]thia[1,14]diazatetracyclo [14.7.2.0~3,6~.0~19,24~]pentacosa[8,16,18,24]tetraen]-15′-one 13′,13′-dioxide], the pIC50 in assay [1] (setting [5]) is 9.21; in assay [2] (setting [6]) it was 6.17.

Turning to `CO[C@@]1(CN2CCn3ccnc3C2)/C=C/C[C@H](C)[C@@H](C)S(=O)(=O)NC(=O)c2ccc3c(c2)N(C[C@@H]2CC[C@H]21)C[C@@]1(CCCc2cc(Cl)ccc21)CO3` [Example 201, (1S,3′R,6′R,7′S,8′E,11′S,12′R)-6-chloro-7′-(5,6-dihydroimidazo[1,2-a]pyrazin-7(8H)-ylmethyl)-7′-methoxy-11′,12′-dimethyl-3,4-dihydro-2H,15′H-spiro[naphthalene-1,22′-[20]oxa[13]thia[1,14]diazatetracyclo [14.7.2.0~3,6~.0~19,24~]pentacosa[8,16,18,24]tetraen]-15′-one 13′,13′-dioxide], the results for the pIC50 in assay [1] (setting [3]) and in assay [2] (setting [7]) were 9.92 and 6.61, respectively.

Turning to `CO[C@@]1(CN2CCN3CCN(C(=O)CCS(=O)(=O)c4ccccc4)C[C@@H]3C2)/C=C/C[C@H](C)[C@@H](C)S(=O)(=O)NC(=O)c2ccc3c(c2)N(C[C@@H]2CC[C@H]21)C[C@@]1(CCCc2cc(Cl)ccc21)CO3` [Example 233], the results for the pIC50 in assay [1] (setting [3]) and in assay [2] (setting [4]) were 9.29 and 6.69, respectively.

As to `CO[C@@]1(c2cnccc2F)/C=C/C[C@H](C)[C@@H](C)S(=O)(=O)NC(=O)c2ccc3c(c2)N(C[C@@H]2CC[C@H]21)C[C@@]1(CCCc2cc(Cl)ccc21)CO3` (single isomer, unassigned) [Example 100538], the negative-log IC50 (pIC50) is 8.83 in assay [1] (setting [5]) and 5.62 in assay [2] (setting [6]).

Regarding `CO[C@]1(CN2CCN(C3CC3)CC2)/C=C/C[C@H](C)[C@@H](C)S(=O)(=O)NC(=O)c2ccc3c(c2)N(C[C@@H]2CC[C@H]21)C[C@@]1(CCCc2cc(Cl)ccc21)CO3` [Example 91, (1S,3′R,6′R,7′R,8′E,11′S,12′R)-6-chloro-7′-((4-cyclopropyl-1-piperazinyl)methyl)-7′-methoxy-11′,12′-dimethyl-3,4-dihydro-2H,15′H-spiro[naphthalene-1,22′-[20]oxa[13]thia[1,14]diazatetracyclo [14.7.2.0~3,6~.0~19,24~]pentacosa[8,16,18,24]tetraen]-15′-one 13′,13′-dioxide], the pIC50 in assay [1] (setting [3]) is 9.69; in assay [2] (setting [7]), 6.25.
